# Assay results taken from patent publication US9115143B2, “Substituted indole derivatives as gamma secretase modulators” (Janssen Pharmaceuticals, Inc., priority 2011, dated 2015).
# Key:
# Aβ42 = test: In vivo efficacy B-1a: brain soluble Aβ42 in non-transgenic rodents, ELISA; parameters: species or system mouse; details: dose 30 mg/kg oral dosing, brain soluble fraction, untreated animals (Ctrl) set at 100; for response vs control in vivo at 30 mg/kg: Mus musculus, po, read-out: Aβ42 (% vs Ctrl)_Mean; for Aβ42 (% vs Ctrl)_Mean: 30 mg/kg
# Excerpt: (§1) To determine whether acute administration of an Aβ42 lowering agent would reduce Aβ42 levels in vivo, non-transgenic rodents, e.g. mice or rats were used. Animals treated with the Aβ42 lowering agent were examined and compared to those untreated or treated with vehicle and brain levels of soluble Aβ42 and total Aβ were quantitated by standard techniques, for example, using ELISA. Treatment periods varied from hours (h) to days and were adjusted based on the results of the Aβ42 lowering once a time course of onset of effect could be established.
# (§2) A typical protocol for measuring Aβ42 lowering in vivo is shown but it is only one of many variations that could be used to optimize the levels of detectable Aβ. For example, Aβ42 lowering compounds were formulated in 20% of Captisol® (a sulfobutyl ether of β-cyclodextrin) in water or 20% hydroxypropyl β cyclodextrin. The Aβ42 lowering agents were administered as a single oral dose or by any acceptable route of administration to overnight fasted animals. After 4 h, the animals were sacrificed and Aβ42 levels were analysed.
# (§3) Blood was collected by decapitation and exsanguinations in EDTA-treated collection tubes. Blood was centrifuged at 1900 g for 10 minutes (min) at 4° C. and the plasma recovered and flash frozen for later analysis. The brain was removed from the cranium and hindbrain. The cerebellum was removed and the left and right hemisphere were separated. The left hemisphere was stored at −18° C. for quantitative analysis of test compound levels. The right hemisphere was rinsed with phosphate-buffered saline (PBS) buffer and immediately frozen on dry ice and stored at −80° C. until homogenization for biochemical assays.
# (§4) Mouse brains from non-transgenic animals were resuspended in 8 volumes of 0.4% DEA (diethylamine)/50 mM NaCl containing protease inhibitors (Roche-11873580001 or 04693159001) per gram of tissue, e.g. for 0.158 g brain, add 1.264 mL of 0.4% DEA. All samples were homogenized in the FastPrep-24 system (MP Biomedicals) using lysing matrix D (MPBio #6913-100) at 6 m/s for 20 seconds. Homogenates were centrifuged at 20800×g for 5 min and supernatants collected. Supernatants were centrifuged at 221.300×g for 50 min. The resulting high speed supernatants were then transferred to fresh eppendorf tubes. Nine parts of supernatant were neutralized with 1 part 0.5 M Tris-HCl pH 6.8 and used to quantify Aβtotal and Aβ42.
# To quantify the amount of Aβtotal and Aβ42 in the soluble fraction of the brain homogenates, Enzyme-Linked-Immunosorbent-Assays were used. Briefly, the standards (a dilution of synthetic Aβ1-40 and Aβ1-42, Bachem) were prepared in 1.5 mL Eppendorf tube in Ultraculture, with final concentrations ranging from 10000 to 0.3 pg/mL. The samples and standards were co-incubated with HRPO-labelled N-terminal antibody JRF/rAμ/2 for Aβ42 detection and with the biotinylated mid-domain antibody 4G8 for Aβtotal detection. 50 μl of conjugate/sample or conjugate/standards mixtures were then added to the antibody-coated plate (the capture antibodies selectively recognize the C-terminal end of Aβ42, antibody JRF/cAβ42/26, for Aβ42 detection and the N-terminus of AB, antibody JRF/rAβ/2, for Aβtotal detection). The plate was allowed to incubate overnight at 4° C. in order to allow formation of the antibody-amyloid complex. Following this incubation and subsequent wash steps the ELISA for Aβ42 quantification was finished by addition of Quanta Blu fluorogenic peroxidase substrate according to the manufacturer's instructions (Pierce Corp., Rockford, Ill.). A reading was performed after 10 to 15 min (excitation 320 nm/emission 420 nm).
# In this model a Aβ42 lowering compared to untreated animals would be advantageous, in particular a Aβ42 lowering with at least 10%, more in particular a Aβ42 lowering with at least 20%.
# The results are shown in Table 4 (dose 30 mg/kg oral dosing) (value for untreated animals as control (Ctrl) was set at 100): […]
# Aβ38 = test: In vivo efficacy B-2a: brain soluble Aβ38 in non-transgenic rodents, ELISA; parameters: species or system mouse; details: dose 30 mg/kg oral dosing, brain soluble fraction, untreated animals (Ctrl) set at 100; for response vs control in vivo at 30 mg/kg: Mus musculus, po, read-out: Aβ38 (% vs Ctrl)_Mean; for Aβ38 (% vs Ctrl)_Mean: 30 mg/kg
# Excerpt: Aβ38 increasing agents can be administered in any standard form using any standard method. For example, but not limited to, Aβ38 increasing agents can be in the form of liquid, tablets or capsules that are taken orally or by injection.
# as §1, with “Aβ38 increasing agents” for “Aβ42 lowering agent”, “increase Aβ38” for “reduce Aβ42”, “Aβ38” for “Aβ42”, “Aβ38 increase” for “Aβ42 lowering”
# as §2, with “measuring Aβ38 increase” for “measuring Aβ42 lowering”, “example, Aβ38 increasing agents” for “example, Aβ42 lowering compounds”, “The Aβ38 increasing” for “The Aβ42 lowering”, “and Aβ38” for “and Aβ42”
# as §3
# as §4, with “Aβ38.” for “Aβ42.”
# To quantify the amount of Aβtotal and Aβ38 in the soluble fraction of the brain homogenates, Enzyme-Linked-Immunosorbent-Assays were used. Briefly, the standards (a dilution of synthetic Aβ1-40 and Aβ1-38, ANASPEC) were prepared in 1.5 mL Eppendorf tube in Ultraculture, with final concentrations ranging from 10000 to 0.3 pg/mL. The samples and standards were co-incubated with HRPO-labelled N-terminal antibody for Aβ38 detection and with the biotinylated mid-domain antibody 4G8 for Aβtotal detection. 50 μl of conjugate/sample or conjugate/standards mixtures were then added to the antibody-coated plate (the capture antibodies selectively recognize the C-terminal end of Aβ38, antibody J&JPRD/Aβ38/5, for Aβ38 detection and the N-terminus of Aβ, antibody JRF/rAβ/2, for Aβtotal detection). The plate was allowed to incubate overnight at 4° C. in order to allow formation of the antibody-amyloid complex. Following this incubation and subsequent wash steps the ELISA for Aβ38 quantification was finished by addition of Quanta Blu fluorogenic peroxidase substrate according to the manufacturer's instructions (Pierce Corp., Rockford, Ill.). A reading was performed after 10 to 15 min (excitation 320 nm/emission 420 nm). […]
Compound,response vs control in vivo at 30 mg/kg (Aβ42) [%],response vs control in vivo at 30 mg/kg (Aβ38) [%],Aβ42 (% vs Ctrl)_Mean (Aβ42) [% vs Ctrl],Aβ38 (% vs Ctrl)_Mean (Aβ38) [% vs Ctrl]
"Cc1cn(-c2ccc3[nH]c(-c4nc5n(n4)CCCC5c4ccc(F)cc4C)cc3c2)cn1 (single isomer, unassigned) [Compound 77, 8-(4-fluoro-2-methylphenyl)-5,6,7,8-tetrahydro-2-[5-(4-methyl-1H-imidazol-1-yl)-1H-indol-2-yl]-[1,2,4]triazolo[1,5-a]pyridine]",104,168,–,–
"Cc1cc(F)ccc1C1OCCn2cc(-c3cc4nc(-c5cnn(C)c5)ccc4[nH]3)nc21 (single isomer, unassigned) [Compound 102, 8-(4-fluoro-2-methylphenyl)-5,6-dihydro-2-[5-(1-methyl-1H-pyrazol-4-yl)-1H-pyrrolo[3,2-b]pyridin-2-yl]-8H-imidazo[2,1-c][1,4]oxazine]",98,82,–,–
"COc1c(C#N)ccc2[nH]c(-c3nc4n(n3)CCOC4c3c(F)cccc3Cl)cc12 (single isomer, unassigned) [Compound 117, 2-[8-(2-chloro-6-fluorophenyl)-5,6-dihydro-8H-[1,2,4]triazolo[5,1-c][1,4]oxazin-2-yl]-4-methoxy-1H-indole-5-carbonitrile]",63,106,–,–
"Cc1cc(F)ccc1C1CCCn2nc(-c3[nH]c4ccc(C#N)cc4c3F)nc21 (single isomer, unassigned) [Compound 182, 3-fluoro-2-[8-(4-fluoro-2-methylphenyl)-5,6,7,8-tetrahydro[1,2,4]triazolo[1,5-a]pyridin-2-yl]-1H-indole-5-carbonitrile]",122,132,–,–
"Cc1cc(F)ccc1C1CCCn2cc(-c3cc4cc(C#N)ccc4[nH]3)nc21 (stereo not shown) [Compound 4, 2-[8-(4-fluoro-2-methylphenyl)-5,6,7,8-tetrahydroimidazo[1,2-a]pyridin-2-yl]-1H-indole-5-carbonitrile]",–,–,63,141
"Cc1cn(-c2ccc3[nH]c(-c4nc5n(n4)CCCC5c4ccccc4C)cc3n2)cn1.Cl (stereo not shown) [Compound 5, 5,6,7,8-tetrahydro-2-[5-(4-methyl-1H-imidazol-1-yl)-1H-pyrrolo[3,2-b]pyridin-2-yl]-8-(2-methylphenyl)-[1,2,4]triazolo[1,5-a]pyridine]",106,123,–,–
"Cc1cc(-c2ccc3[nH]c(-c4nc5n(n4)CCCC5c4ccccc4C)cc3n2)ccn1 (stereo not shown) [Compound 6, 5,6,7,8-tetrahydro-8-(2-methylphenyl)-2-[5-(2-methyl-4-pyridinyl)-1H-pyrrolo[3,2-b]pyridin-2-yl]-[1,2,4]triazolo[1,5-a]pyridine]",79,78,–,–
"COc1c(C#N)ccc2[nH]c(-c3nc4n(n3)CCCC4c3ccccc3C(F)(F)F)cc12 (stereo not shown) [Compound 7, 4-methoxy-2-[5,6,7,8-tetrahydro-8-[2-(trifluoromethyl)phenyl][1,2,4]triazolo[1,5-a]pyridin-2-yl]-1H-indole-5-carbonitrile]",82,120,–,–
"Cc1cn(-c2ccc3[nH]c(-c4nc5n(n4)CCCC5c4ccccc4C(F)(F)F)cc3c2)cn1 (stereo not shown) [Compound 8, 5,6,7,8-tetrahydro-2-[5-(4-methyl-1H-imidazol-1-yl)-1H-indol-2-yl]-8-[2-(trifluoromethyl)phenyl]-[1,2,4]triazolo[1,5-a]pyridine]",41,181,–,–
"Cc1cc(F)ccc1C1CCCn2nc(-c3cc4cc(C#N)ccc4[nH]3)nc21 (stereo not shown) [Compound 9, 2-[8-(4-fluoro-2-methylphenyl)-5,6,7,8-tetrahydro[1,2,4]triazolo[1,5-a]pyridin-2-yl]-1H-indole-5-carbonitrile]",–,–,66,87
"Cc1cc(F)ccc1C1CCCn2nc(-c3cc4cc(C#N)ccc4[nH]3)nc21 (stereo not shown) [Compound 10, 2-[8-(4-fluoro-2-methylphenyl)-5,6,7,8-tetrahydro[1,2,4]triazolo[1,5-a]pyridin-2-yl]-1H-indole-5-carbonitrile]",72,–,–,115
"Cc1ccccc1C1CCCn2nc(-c3cc4cc(C#N)ccc4[nH]3)nc21 (stereo not shown) [Compound 12, 2-[5,6,7,8-tetrahydro-8-(2-methylphenyl)[1,2,4]triazolo[1,5-a]pyridin-2-yl]-1H-indole-5-carbonitrile]",–,–,94,96
"Cc1ccccc1C1CCCn2nc(-c3cc4cc(C#N)ccc4[nH]3)nc21 (stereo not shown) [Compound 13, 2-[5,6,7,8-tetrahydro-8-(2-methylphenyl)[1,2,4]triazolo[1,5-a]pyridin-2-yl]-1H-indole-5-carbonitrile]",79,116,–,–
"N#Cc1ccc2[nH]c(-c3cn4c(n3)C(c3ccccc3Cl)CCC4)cc2c1 (stereo not shown) [Compound 16, 2-[8-(2-chlorophenyl)-5,6,7,8-tetrahydroimidazo[1,2-a]pyridin-2-yl]-1H-indole-5-carbonitrile]",74,120,–,–
